According to patent US10111929B1, “Growth hormone releasing factor analogs and uses” (EZ IP, LLC, priority 2017, dated 2018):

What was measured:
Format in all cases: in vivo
[1] = Human clinical trials: radial bone density by ultrasonographic technique; details: subjects taking HTA-8 alone (Trial #1)
Protocol: (§1) Two challenges were being considered at the beginning of the human clinical trial. The first challenge was to document the stand-alone efficacy of HTA-8 as a new growth hormone releasing factor. The second was to determine if HTA-8 could be combined with other common releasing factors to create an even better result. As such, two separate trials were conducted. • Trial #1/HTA-8: Ten individuals ranging in age from 30 to 69 years were given 30 ng of HTA-8 in the form of an aerosolized oral spray before bed, over a 30-32 day period. • Trial #2/HTA-8+: Fifteen individuals ranging in age from 38 to 70 years of age were given an effervescent tablet to take once daily over a 25-36 day period that contained 20 ng of HTA-8 in combination with 1200 mg each of the amino acids lysine and arginine. (Previous published experimentation has shown that the combination of lysine and arginine in the doses used in Trial #2 is an effective GH releasing factor.)
An increase in bone density decreases the chance of fracture and […]. Bone density is a particularly important issue as the body ages, regardless of sex. During the Clinical Trials, radial bone density was measured using an ultrasonographic technique.

[2] = Human clinical trials: ultrasound-based body composition analysis and body weight; details: all study participants in both clinical trials
Protocol: as §1

IGF-1 = test: Human clinical trials: IGF-1 concentrations in participant blood samples
Protocol: as §1
The principal hormone measured in order to establish whether there is an increase in growth hormone secretion is IGF-1. IGF-1 concentrations and total cholesterol levels were determined by collecting participant blood samples at the beginning of the studies and at their conclusion.

total cholesterol = test: Human clinical trials: total cholesterol levels in participant blood samples; details: majority of clinical trial participants; with or without amino acids; absence of additional measures
Protocol: as §1
The principal hormone measured in order to establish whether there is an increase in growth hormone secretion is IGF-1. IGF-1 concentrations and total cholesterol levels were determined by collecting participant blood samples at the beginning of the studies and at their conclusion. […]

With “H-D-Ala-D-2-Nal-Trp-H is-Trp-D-Phe-Lys-N H2 [HTA-8]” the “average increase in bone density” value [1] was 6.8%, the “change in adipose tissue mass” value [2] was “decrease in adipose tissue mass” and the “change in lean muscle mass” value [2] was “increase in lean muscle mass”. The maximum IGF-1 level measured in all clinical trial participants after the study period (IGF-1; Trial #1: 30 ng HTA-8 oral spray before bed, 30-32 days, person) was 410 ng/mL, the “GHRF activity (IGF-1 response)” value (IGF-1; Trial #1: HTA-8 alone, oral spray) was “bona fide, stand-alone GHRF” and the IGF-1 level on average, after (increased to) (IGF-1; Trial #2: effervescent tablet once daily, 20 ng HTA-8 with 1200 mg each lysine and arginine, after 25-36 day period) was 202 ng/mL. The IGF-1 level on average, before (increased from) (IGF-1; Trial #2: effervescent tablet once daily, 20 ng HTA-8 with 1200 mg each lysine and arginine, beginning of study) was 170 ng/mL and the “change in total cholesterol levels over the study period” value (total cholesterol) was “clinically significant decrease”.
